# From US12655107B2 (The United States of America, as represented by the …, priority 2018, dated 2026)
# Read-outs that look alike come from different tables or passages of the source.
# Columns and labels:
# [1] = test system: γH2AX foci in HCT116 cells; experiment: γH2AX detection by immunofluorescence; assay type: cell-based, human; conditions: HCT116, 1 μM, 3 h
# Description: To evaluate the DNA damaging effect of 50 in cancer cells, γH2AX foci were assessed by immunofluorescence microscopy in human […] HCT116 cells. After incubation with the compounds for 3 h, the HCT116 cells were stained with γH2AX antibodies.
# HCT116 cells (2×10^4 cells/mL) were grown in culture medium and treated with compounds for 3 h at 37° C. […] Cells were permeabilized with 0.5% Triton X-100 in PBS at 0° C. for 30 min. Dish was blocked with 5% goat serum/PBS at 37° C. for 3 h. […] The dishes were again washed six times with blocking buffer. Digital images were recorded using an LSM710 microscope (Zeiss, Germany) and analyzed with ZEN software.
# HCT116 cells = experiment: Flow cytometry apoptosis assay; assay type: cell-based, human
# Description: To evaluate the induction of apoptosis by 50, flow cytometry assays were performed in HCT116 cells.
# The stained cells were analyzed by using flow cytometry (BD, FACSCalibur, USA) within I h. The experiments were repeated three times independently.
# [2] = Pharmacokinetic study in rat; conditions: SD rats
# Description: The SD rats were divided into two groups (n=3) and treated by intravenous injection (i.v.) at 1 mg/kg dose and intragastrical administration (i.g.) at 5 mg/kg dose, respectively.
# A pharmacokinetic (PK) study in vivo of 50 was performed in Sprague-Dawley (SD) rats. The SD rats were randomly divided into two groups […] and treated by intravenous injection (iv) at 1 mg/kg dose or an intragastrical administration (ig) at 5 mg/kg dose, respectively. Plasma samples were collected postdosing and the concentration of 50 was measured.
# Plasma samples (100 μL) were obtained after centrifugation for 10 min at 3000 rpm and stored at −20° C. until used for analysis. The plasma was detected through LC-MS-MS.
# MCF-7 xenograft = experiment: In vivo antitumor activity, MCF-7 xenograft; parameters: species or system nude mice; tumor weight inhibitions (TWI): dose or concentration left out as unconfirmed
# HCT116 xenograft = experiment: In vivo antitumor activity, HCT116 xenograft
structure (smiles),measurement,setting,value
"CNCCn1c(=O)c2cc(OC)c(OC)cc2c2ccc3cc4c(cc3c21)OCO4 [Compound 50, 2,3-dimethoxy-12-(2-(methylamino)ethyl)-[1,3]dioxolo[4′5′:4,5]benzo[1,2-c]phenanthridin-13(12H)-one]",γH2AX foci,[1],effectively induced γH2AX foci
same,early apoptotic cells,"HCT116 cells; HCT116, 24 h, 2 μM",27.95%
same,induction of apoptosis,"HCT116 cells; HCT116, 24 h, 0.5, 1 and 2 μM",clearly induced HCT116 cells apoptosis in a dose-dependent manner
same,AUC0→t,[2]; i.g. 5 mg/kg,48.3 ± 28 ng·h/mL
same,Cmax,[2]; i.g. 5 mg/kg,19 ± 9 ng/mL
same,Tmax,[2]; i.g. 5 mg/kg,2 ± 0 h
same,F (%),[2]; i.g. 5 mg/kg vs i.v. 1 mg/kg,20.4%
same,AUC0→t,[2]; i.v. 1 mg/kg,47.2 ± 1.8 ng·h/mL
same,AUC0→∞,[2]; i.v. 1 mg/kg,49.8 ± 1.5 ng·h/mL
same,MRTINF,[2]; i.v. 1 mg/kg,1.46 ± 0.027 h
same,T1/2,[2]; i.v. 1 mg/kg,1.21 h
same,tumor weight inhibitions (TWI),"MCF-7 xenograft; MCF-7 model, ip daily",71.8%
same,tumor volume,"MCF-7 xenograft; MCF-7 xenograft, 5, 10, 20 mg/kg ip daily",significantly reduced the tumor volume in a dose-dependent manner
same,median lethal dose (LD50),"i.p., dose to kill half of mice after 7 days",192 mg/kg
same,mouse survival,"mouse, in vivo, ip, 192 mg/kg",three mice survived
same,mouse survival,"single i.p. dose 122.9 mg/kg, 7 days",all mice survived
same,mouse survival,"single i.p. dose 153.6 mg/kg, 7 days",four mice survived
same,mouse survival,"single i.p. dose 240 mg/kg, 7 days",two mice survived
same,mouse survival,"single i.p. dose 300 mg/kg, 7 days",All mice died within 5 days
same,tumor weight inhibitions (TWI),"HCT116 xenograft; HCT116 model, 20 μM dose (so in the source), ip daily",76.9%
same,tumor volume,"HCT116 xenograft; HCT116 xenograft, i.p. once every day",significantly reduced the tumor volume in a dose-dependent manner
